Measurements as given in ChEMBL document CHEMBL4834431, “Design of Dimeric Bile Acid Derivatives as Potent and Selective Human NTCP Inhibitors” (J Med Chem, 2021).
Active and inactive are the calls of the source. No cut-off for these calls is given here.

What was measured:
Hepatitis B virus [1] = experiment: Antiviral activity against HBV infected in human HepG2-NTCP cells assessed as reduction in HBeAg secretion incubated for 24 hrs followed replacement with fresh medium and measured at day 5 post infection by ELISA; type: functional, organism-based
[2] = Stability in mouse liver microsomes assessed as half life at 1 uM preincubated for 5 mins followed by NADPH addition and measured upto 60 mins by LC-MS analysis; type: ADME, Microsome; conditions: time 65 min
[3] = Stability in mouse liver microsomes assessed as intrinsic clearance at 1 uM preincubated for 5 mins followed by NADPH addition and measured upto 60 mins by LC-MS analysis; type: ADME, Microsome; conditions: time 65 min, read-out: CLH
[4] = target: T1, Hepatic sodium/bile acid cotransporter (Homo sapiens, UniProt Q14973); experiment: Inhibition of human NTCP-mediated [3H]-TCA uptake expressed in human HepG2 cells pretreated for 2 hrs followed by [3H]-TCA addition in absence of FBS; type: cell-based
T1 sequence (Q14973 whole entry): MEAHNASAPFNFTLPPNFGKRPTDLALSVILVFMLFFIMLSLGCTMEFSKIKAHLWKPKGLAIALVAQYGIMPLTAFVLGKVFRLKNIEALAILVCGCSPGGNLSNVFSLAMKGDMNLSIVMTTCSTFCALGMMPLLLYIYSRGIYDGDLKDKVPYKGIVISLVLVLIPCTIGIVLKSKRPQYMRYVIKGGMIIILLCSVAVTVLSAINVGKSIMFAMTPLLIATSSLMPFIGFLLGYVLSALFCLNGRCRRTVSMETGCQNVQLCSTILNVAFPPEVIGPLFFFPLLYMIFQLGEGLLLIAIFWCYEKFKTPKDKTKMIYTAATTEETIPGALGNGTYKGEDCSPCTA

Hepatitis B virus [5] = experiment: Antiviral activity against HBV infected in human HepG2-NTCP cells assessed as reduction in HBeAg secretion at 111 to 1000 nM incubated for 24 hrs followed by replacement with fresh medium and measured at day 5 post infection by ELISA; type: functional, organism-based; conditions: dose 111-1000 nM
Hepatitis B virus [6] = experiment: Antiviral activity against HBV infected in human HepG2-NTCP cells assessed as reduction in intracellular HBV RNA level at 1 uM by qPCR analysis; type: functional, organism-based
Hepatitis B virus [7] = experiment: Antiviral activity against HBV infected in human HepG2-NTCP cells assessed as reduction in intracellular accumulation of HBcAg at 1 uM by immunostaining based fluorescence microscopic analysis; type: functional, organism-based
Hepatitis B virus [8] = experiment: Antiviral activity against HBV infected in human HepG2-NTCP cells assessed as reduction in intracellular accumulation of HBsAg at 1 uM by immunostaining based fluorescence microscopic analysis; type: functional, organism-based
Hepatitis delta virus = experiment: Antiviral activity against HDV infected in human HepG2-NTCP cells assessed as reduction in intranuclear accumulation of HDV delta antigen at 5 uM incubated for 24 hrs followed by replacement with fresh medium and measured at day 5 post infection by DAPI staining based confocal microscopic analysis (reference value: 12.1 %); type: functional; design: scale not given: the % may be the effect or the level left
Hepatitis B virus [9] = experiment: Antiviral activity against HBV infected in human HepG2-NTCP cells assessed as reduction in HBeAg secretion at 1 uM preincubated with compound followed by viral infection by ELISA; type: functional, organism-based
Hepatitis B virus [10] = experiment: Antiviral activity against HBV infected in human HepG2-NTCP cells assessed as reduction in HBeAg secretion at 1 uM compound added along with viral infection by ELISA; type: functional, organism-based
Hepatitis B virus [11] = experiment: Antiviral activity against HBV infected in human HepG2-NTCP cells assessed as reduction in HBeAg secretion at 1 uM pre-infected with virus followed by compound addition by ELISA; type: functional, organism-based
[12] = target: T1, Hepatic sodium/bile acid cotransporter; experiment: Inhibition of FITC-labeled HBV Pre-S1 polypeptide binding to human NTCP expressed in HepG2 cells after 2 to 3 hrs by confocal microscopic analysis; type: cell-based; conditions: time 2-3 hrs
HepG2 [13] = experiment: Cytotoxicity against human HepG2 cells expressing NTCP assessed as reduction in cell viability at 10 uM after 48 hrs by alamar blue assay; type: cell-based; conditions: hepg2, 48 h
Hepatocyte = experiment: Cytotoxicity against primary tupaia hepatocytes expressing NTCP assessed as reduction in cell viability at 100 uM after 48 hrs by Cell-Titer Glo assay; type: cell-based; conditions: scandentia
HepG2 [14] = experiment: Effect on NTCP surface expression in human HepG2-NTCP cells assessed as reduction in NTCP surface expression level after 2 hrs by immunostaining based assay; type: functional, cell-based
[15] = target: T1, Hepatic sodium/bile acid cotransporter; experiment: Inhibition of human NTCP-mediated [3H]-TCA uptake expressed in human HepG2 cells at 2 uM; type: cell-based; conditions: hepg2, 2 µM
[16] = target: T2, Ileal sodium/bile acid cotransporter (Homo sapiens, UniProt Q12908); experiment: Inhibition of human ASBT-mediated [3H]-TCA uptake expressed in human HepG2 cells at 2 uM; type: cell-based; conditions: hepg2, 2 µM
T2 sequence (Q12908 whole entry): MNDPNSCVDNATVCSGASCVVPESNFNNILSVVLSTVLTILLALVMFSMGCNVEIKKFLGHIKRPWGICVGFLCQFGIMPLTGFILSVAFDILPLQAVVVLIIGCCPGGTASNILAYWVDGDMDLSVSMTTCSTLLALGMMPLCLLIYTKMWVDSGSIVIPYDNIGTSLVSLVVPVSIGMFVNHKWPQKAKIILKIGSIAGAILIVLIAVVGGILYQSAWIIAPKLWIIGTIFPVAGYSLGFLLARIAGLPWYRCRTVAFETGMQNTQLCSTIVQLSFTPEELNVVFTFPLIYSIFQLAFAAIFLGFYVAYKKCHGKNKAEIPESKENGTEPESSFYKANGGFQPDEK

[17] = target: T1, Hepatic sodium/bile acid cotransporter; experiment: Inhibition of human NTCP-mediated [3H]-Estrone sulfate uptake expressed in human HepG2 cells at 2 uM; type: cell-based; conditions: hepg2, 2 µM
[18] = target: T3, Solute carrier organic anion transporter family member 1B1 (Homo sapiens, UniProt Q9Y6L6); experiment: Inhibition of human OATP1B1-mediated [3H]-Estrone sulfate uptake expressed in human HepG2 cells at 2 uM; type: cell-based; conditions: hepg2, 2 µM
T3 sequence (Q9Y6L6 whole entry): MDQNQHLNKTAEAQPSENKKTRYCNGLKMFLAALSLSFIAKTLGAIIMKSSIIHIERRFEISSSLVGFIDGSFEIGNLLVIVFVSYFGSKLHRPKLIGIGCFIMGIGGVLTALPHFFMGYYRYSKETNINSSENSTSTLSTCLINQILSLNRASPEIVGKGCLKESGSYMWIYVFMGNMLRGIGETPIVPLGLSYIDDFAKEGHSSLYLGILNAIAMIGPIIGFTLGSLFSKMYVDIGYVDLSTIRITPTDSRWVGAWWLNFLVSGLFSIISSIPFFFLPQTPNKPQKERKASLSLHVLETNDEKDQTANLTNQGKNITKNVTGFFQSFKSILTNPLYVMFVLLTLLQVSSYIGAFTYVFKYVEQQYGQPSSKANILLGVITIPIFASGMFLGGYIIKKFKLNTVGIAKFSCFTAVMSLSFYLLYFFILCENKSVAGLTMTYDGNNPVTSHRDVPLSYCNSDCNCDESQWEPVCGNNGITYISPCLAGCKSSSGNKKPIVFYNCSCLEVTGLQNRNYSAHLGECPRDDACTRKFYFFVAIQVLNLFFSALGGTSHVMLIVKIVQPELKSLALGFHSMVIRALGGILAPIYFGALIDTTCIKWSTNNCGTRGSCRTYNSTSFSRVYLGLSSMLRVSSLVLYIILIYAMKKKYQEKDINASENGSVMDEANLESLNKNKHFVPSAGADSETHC

Row | SMILES | IC50 (Hepatitis B virus [1]) [µM] | half-life at 1 µM [2] [s] | microsomal CLint at 1 µM [3] [µL/min/mg] | IC50 [4] [µM] | Activity (Hepatitis B virus [5]) | Activity (Hepatitis B virus [6]) | Activity (Hepatitis B virus [7]) | Activity (Hepatitis B virus [8]) | Activity (Hepatitis delta virus) [%] | Activity (Hepatitis B virus [9]) | Activity (Hepatitis B virus [10]) | Activity (Hepatitis B virus [11]) | inhibition (INH) [12] | Activity (HepG2 [13]) | Activity (Hepatocyte) | Activity (HepG2 [14]) | inhibition (INH) [15] | inhibition (INH) [16] | inhibition (INH) [17] | inhibition (INH) [18]
1 | C[C@H](CCC(=O)N[C@@H]1CC[C@@]2(C)[C@@H](C1)C[C@H](O)[C@@H]1[C@@H]2CC[C@]2(C)[C@@H]([C@H](C)CCC(=O)NCCS(=O)(=O)O)CC[C@@H]12)[C@H]1CC[C@H]2[C@@H]3[C@@H](O)C[C@@H]4C[C@H](O)CC[C@]4(C)[C@H]3CC[C@]12C | 0.005 | 42 | 994 | 0.0003 | – | – | – | – | – | – | – | – | – | – | – | – | – | – | – | –
2 | C[C@@H]1CCC(=O)NCCNC(=O)CC[C@@H](C)[C@H]2CC[C@H]3[C@@H]4[C@@H](O)C[C@@H]5C[C@@H](CC[C@]5(C)[C@H]4CC[C@]23C)n2cc(nn2)CO[C@@H]2CC[C@@]3(C)[C@@H](C2)C[C@H](O)[C@@H]2[C@@H]3CC[C@]3(C)[C@@H]1CC[C@@H]23 | 0.081 | – | – | 0.0375 | – | – | – | – | – | – | – | – | – | – | – | – | – | – | – | –
3 | C[C@@H]1CCC(=O)NCCNC(=O)CC[C@@H](C)[C@H]2CC[C@H]3[C@@H]4[C@@H](O)C[C@@H]5C[C@@H](CC[C@]5(C)[C@H]4CC[C@]23C)NC(=O)CCCC(=O)N[C@@H]2CC[C@@]3(C)[C@@H](C2)C[C@H](O)[C@@H]2[C@@H]3CC[C@]3(C)[C@@H]1CC[C@@H]23 | 0.1 | – | – | – | Active | Active | Active | Active | 2.9 | Active | Active | inactive | Active | Non-Toxic | Non-Toxic | inactive | Active | Not Active | Active | Not Active
